Active and inactive are the calls of the source. The calls are words filed in the database; no cut-off is given here.
Key:
[1] = test system: Rattus norvegicus; assay: Narcotic analgesic activity in sc dosed rat assessed as inhibition of phenazocine-induced effect by D'Amour-Smith tail flick test; type: functional
[2] = test system: Mus musculus; assay: Antiwrithing activity in sc dosed mouse assessed as prevention of acetylcholine-induced abdominal constriction response; type: functional; conditions: Abdomen
[3] = test system: Rattus norvegicus; assay: Narcotic analgesic activity in po dosed rat assessed as inhibition of phenazocine-induced effect by D'Amour-Smith tail flick test; type: functional
[4] = test system: Mus musculus; assay: Antiwrithing activity in mouse assessed as prevention of acetylcholine-induced abdominal constriction response at 100 mg/kg, sc; type: functional, Abdomen; conditions: route subcutaneous
[5] = test system: Mus musculus; assay: Antiwrithing activity in mouse assessed as prevention of acetylcholine-induced abdominal constriction response at 25 mg/kg, sc; type: functional, Abdomen; conditions: route subcutaneous
[6] = test system: Mus musculus; assay: Induction of depression in mouse at 75 mg/kg, sc; type: organism-based; design: dose 75 mg/kg, route subcutaneous; conditions: in vivo
[7] = test system: Mus musculus; assay: Antiwrithing activity in sc dosed mouse assessed as prevention of phenyl-p-benzoquinone-induced abdominal constriction response; type: functional; conditions: Abdomen
[8] = test system: Mus musculus; assay: Induction of sedation in mouse at 40 mg/kg, sc; type: organism-based; design: dose 40 mg/kg, route subcutaneous; conditions: in vivo
[9] = test system: Rattus norvegicus; assay: Induction of tremors in rat at 120 mg/kg, sc; type: organism-based; design: dose 120 mg/kg, route subcutaneous; conditions: in vivo
[10] = test system: Rattus norvegicus; assay: Narcotic analgesic activity in po dosed rat assessed as inhibition of morphine-induced effect by D'Amour-Smith tail flick test; type: functional, organism-based
[11] = test system: Rattus norvegicus; assay: Analgesic activity in rat assessed as inhibition of intraarterial bradykinin-induced effect up to 100 mg/kg, sc; type: functional
[12] = test system: Rattus norvegicus; assay: Induction of convulsion in rat at 120 mg/kg, sc; type: organism-based; design: dose 120 mg/kg, route subcutaneous; conditions: in vivo
[13] = test system: Rattus norvegicus; assay: Narcotic analgesic activity in po dosed rat assessed as inhibition of meperidine-induced effect by D'Amour-Smith tail flick test; type: functional, organism-based
[14] = test system: Mus musculus; assay: Antiwrithing activity in po dosed mouse assessed as prevention of phenyl-p-benzoquinone-induced abdominal constriction response; type: functional; conditions: Abdomen
[15] = test system: Rattus norvegicus; assay: Narcotic analgesic activity in sc dosed rat assessed as inhibition of meperidine-induced effect by D'Amour-Smith tail flick test; type: functional, organism-based
[16] = test system: Mus musculus; assay: Antiwrithing activity in po dosed mouse assessed as prevention of acetylcholine-induced abdominal constriction response; type: functional; conditions: Abdomen
[17] = test system: Rattus norvegicus; assay: Narcotic analgesic activity in sc dosed rat assessed as inhibition of morphine-induced effect by D'Amour-Smith tail flick test; type: functional, organism-based
[18] = test system: Mus musculus; assay: Induction of hyperexcitable in mouse at 100 mg/kg, sc; type: organism-based; design: dose 100 mg/kg, route subcutaneous; conditions: in vivo
[19] = test system: Rattus norvegicus; assay: Induction of hyperactiveness in rat at 200 mg/kg, po; type: organism-based; design: dose 200 mg/kg, route oral; conditions: in vivo
[20] = test system: Rattus norvegicus; assay: Induction of depression in rat at 75 mg/kg, sc; type: organism-based; design: dose 75 mg/kg, route subcutaneous; conditions: in vivo
[21] = test system: Mus musculus; assay: Analgesic activity in mouse assessed as inhibition of intraarterial bradykinin-induced effect at 50 mg/kg, sc; type: functional, organism-based; design: dose 50 mg/kg
[22] = test system: Mus musculus; assay: Induction of hyperactiveness in mouse at 30 mg/kg, sc; type: organism-based; design: dose 30 mg/kg, route subcutaneous; conditions: in vivo
[23] = test system: Mus musculus; assay: Toxicity in mouse assessed as mortality at >15 mg/kg, sc; type: organism-based; conditions: in vivo
[24] = test system: Mus musculus; assay: Antiwrithing activity in mouse assessed as prevention of acetylcholine-induced abdominal constriction response at 15 mg/kg, sc; type: functional, Abdomen; conditions: route subcutaneous
[25] = test system: Mus musculus; assay: Induction of convulsion in mouse at 75 mg/kg, sc; type: organism-based; design: dose 75 mg/kg, route subcutaneous; conditions: in vivo

COC(=O)[C@H]1C[C@H]2CC[C@H]([C@H]1c1ccccc1)N2C
AD50 [1]: >80 mg/kg

COC(=O)[C@H]1C[C@H]2CC[C@@H]([C@H]1c1ccccc1)N2C
AD50 [1]: 3.3 mg/kg

COC(=O)[C@H]1C[C@H]2CC[C@@H](N2)[C@H]1c1cccc(O)c1
AD50 [1]: >80 mg/kg | ED50 [2]: 60 mg/kg

COC(=O)[C@H]1C[C@H]2CC[C@H](N2)[C@H]1c1cccc(O)c1
AD50 [1]: 0.3 mg/kg | ED50 [2]: 60 mg/kg | AD50 [3]: 14 mg/kg

COC(=O)[C@H]1C[C@H]2CC[C@@H]3[C@H]1c1cc(O)ccc1CN23
AD50 [1]: 1.45 mg/kg | Activity [4]: 100% | Activity [5]: 0% | Activity [6]: Toxic

COC(=O)[C@H]1C[C@H]2CC[C@@H]3[C@H]1c1cccc(O)c1CN23
AD50 [1]: 2 mg/kg

COC(=O)[C@@H]1C[C@H]2CCC([C@H]1c1ccccc1)N2C (mixture of isomers)
AD50 [1]: >80 mg/kg | ED50 [7]: 17 mg/kg | ED50 [2]: 12 mg/kg | Activity [8]: Toxic | Activity [9]: Toxic

COC(=O)[C@H]1C[C@H]2CCC([C@H]1c1ccccc1)N2C (mixture of isomers)
Activity [10]: inactive | Activity [11]: inactive | Activity [12]: Toxic | AD50 [1]: 5.5 mg/kg | ED50 [7]: 43 mg/kg | ED50 [2]: 12 mg/kg | Activity [13]: inactive | Activity [8]: Toxic | ED50 [14]: > 200 mg/kg | Activity [15]: inactive | ED50 [16]: 16 mg/kg | Activity [17]: inactive | Activity [18]: Toxic | AD50 [3]: 1.1 mg/kg

COC(=O)[C@H]1C[C@H]2CCC(N2)[C@H]1c1cccc(O)c1 (mixture of isomers)
AD50 [1]: 2 mg/kg

COC(=O)C1C[C@H]2CC[C@H]([C@H]1c1cccs1)N2C (mixture of isomers)
AD50 [1]: 4.9 mg/kg | ED50 [7]: 60 mg/kg | ED50 [2]: 13 mg/kg | Activity [6]: Toxic

COC(=O)[C@H]1C[C@H]2CC[C@H]([C@H]1c1ccc[nH]1)N2C (racemic)
AD50 [1]: >80 mg/kg | Activity [19]: Toxic | ED50 [16]: 34 mg/kg

COC(=O)[C@@H]1C[C@H]2CC[C@H]([C@H]1c1ccccc1)N2Cc1ccccc1 (racemic)
AD50 [1]: >80 mg/kg | ED50 [2]: > 75 mg/kg | ED50 [16]: 21 mg/kg

COC(=O)[C@H]1C[C@H]2CC[C@@H](N2)[C@H]1c1ccccc1 (racemic)
AD50 [1]: 2.1 mg/kg | ED50 [7]: 22 mg/kg | ED50 [2]: 3.4 mg/kg | Activity [20]: Toxic | ED50 [14]: 100 mg/kg | Activity [21]: Active | ED50 [16]: 8.4 mg/kg | AD50 [3]: 4.1 mg/kg | Activity [9]: Toxic

COC(=O)[C@H]1C[C@H]2CC[C@H]([C@H]1c1ccccc1)N2CC1CC1 (racemic)
AD50 [1]: 10 mg/kg | ED50 [2]: 10 mg/kg | Activity [22]: Toxic | Activity [23]: Toxic | Activity [24]: 67% | Activity [25]: Toxic

CN1[C@@H]2CC[C@@H]1[C@@H](c1ccccc1)[C@@H](C(=O)O)C2 (racemic)
AD50 [1]: >80 mg/kg

CC(C)OC(=O)[C@H]1C[C@H]2CC[C@H]([C@H]1c1ccccc1)N2C (racemic)
Activity [12]: Toxic | AD50 [1]: >80 mg/kg | ED50 [2]: 16 mg/kg | Activity [22]: Toxic

— ChEMBL document CHEMBL3272190, “(2-exo-3-endo)-2-Aryltropane-3-carboxylic esters, a new class of narcotic antagonists” (J Med Chem, 1978)
